According to ChEMBL document CHEMBL1141226, “Discovery of a potent, orally available, and isoform-selective retinoic acid beta2 receptor agonist” (J Med Chem, 2005):
Converted amounts (≈) assume the structure as drawn. The source made the active and inactive calls. No cut-off for these calls is given here.

Tests used:
[1] = Oral bioavailability in Rats; format: ADME, organism-based; conditions: rat, in vivo
[2] = target: T1, Retinoic acid receptor beta (Homo sapiens) (UniProt P10826); test: Efficacy against RARbeta1
T1 sequence (whole entry): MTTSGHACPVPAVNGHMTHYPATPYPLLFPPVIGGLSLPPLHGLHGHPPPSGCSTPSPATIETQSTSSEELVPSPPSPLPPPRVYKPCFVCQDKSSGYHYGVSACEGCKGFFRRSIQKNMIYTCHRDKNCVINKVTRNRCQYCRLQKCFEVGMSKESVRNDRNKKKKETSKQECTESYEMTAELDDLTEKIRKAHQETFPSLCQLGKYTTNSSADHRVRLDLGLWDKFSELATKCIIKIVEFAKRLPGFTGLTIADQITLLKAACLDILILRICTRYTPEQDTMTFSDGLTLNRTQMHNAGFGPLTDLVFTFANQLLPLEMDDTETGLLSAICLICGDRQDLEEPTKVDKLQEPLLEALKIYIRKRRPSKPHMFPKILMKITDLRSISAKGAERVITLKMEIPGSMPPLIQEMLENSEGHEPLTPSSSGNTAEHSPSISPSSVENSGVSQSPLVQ

[3] = Partition coefficient of the compound, log P; format: physicochemical; conditions: octanol/water
[4] = Solubility at pH 7.4; format: physicochemical; conditions: buffer
[5] = Distribution coefficient of the compound, log D; format: physicochemical; conditions: octanol/water
[6] = target: T1, Retinoic acid receptor beta (Homo sapiens); test: Efficacy against RARbeta2
[7] = target: T2, Retinoic acid receptor beta (Homo sapiens, UniProt P10826); test: Transcriptional activity against RARbeta1; format: functional
T2 sequence (P10826 whole entry): T1 sequence (whole entry)

[8] = target: T2, Retinoic acid receptor beta; test: Transcriptional activity against RARbeta2; format: functional
MCF7 = test: Inhibition of DNA synthesis in MCF7 cells by [3H]thymidine incorporation; format: functional, cell-based; conditions: Homo sapiens

| Compound | bioavailability [1] | Efficacy [2] | logP [3] | solubility [4] | logD [5] | Efficacy [6] | EC50 [7] | EC50 [8] | Activity (MCF7) |
| --- | --- | --- | --- | --- | --- | --- | --- | --- | --- |
| CCCCOCCOc1nc(-c2ccc(C(=O)O)c(F)c2)sc1C | 52% | 40% | 5.1 | 4800 µg/mL (≈ 13.6 mM) | 1.4 | 96% |  |  |  |
| CCCCCCCCc1ccc(-c2ccc(C(=O)O)cc2)cc1 |  | 31% |  | < 1 µg/mL |  | 92% | > 10000 nM | 126 nM | Active |
| CCCCCc1ccc(-c2ccc(C(=O)O)cc2)cc1 |  | inactive |  |  |  | 38% | > 10000 nM | 15.8 nM |  |
| CC1(C)CCC(C)(C)c2cc(C(=O)Nc3ccc(C(=O)O)cc3)ccc21 |  |  |  |  |  | 100% |  |  |  |
| CCCc1ccc(-c2ccc(C(=O)O)cc2)cc1 |  | inactive |  |  |  | inactive |  |  |  |
| CCCCCCc1ccc(-c2ccc(C(=O)O)cc2)cc1 |  | inactive |  |  |  | 37% | > 10000 nM | 50.1 nM |  |
| CCCCc1ccc(-c2ccc(C(=O)O)cc2)cc1 |  | inactive |  |  |  | 36% | > 10000 nM | 63.1 nM |  |
| CCCCCCCc1ccc(-c2ccc(C(=O)O)cc2)cc1 |  | inactive |  |  |  | 64% | > 10000 nM | 25.1 nM |  |
| CCCCCCCCCc1ccc(-c2ccc(C(=O)O)cc2)cc1 |  | 58% |  |  |  | 100% | 316 nM | 15.8 nM |  |
| CCc1ccc(-c2ccc(C(=O)O)cc2)cc1 |  | inactive |  |  |  | inactive |  |  |  |
